Legend:
[1] = target: T1, Human leukocyte 5-lipoxygenase (Homo sapiens, UniProt P09917); experiment: Lipoxygenase UV-based inhibitor assay, 5-LOX; assay type: biochemical; settings: for IC50: UV-based assay, 10 µM AA, pH 7.3, crude enzyme, error = SD, read-out: 5-LOX IC50
T1 construct: made in house
T1 sequence (P09917 1-674): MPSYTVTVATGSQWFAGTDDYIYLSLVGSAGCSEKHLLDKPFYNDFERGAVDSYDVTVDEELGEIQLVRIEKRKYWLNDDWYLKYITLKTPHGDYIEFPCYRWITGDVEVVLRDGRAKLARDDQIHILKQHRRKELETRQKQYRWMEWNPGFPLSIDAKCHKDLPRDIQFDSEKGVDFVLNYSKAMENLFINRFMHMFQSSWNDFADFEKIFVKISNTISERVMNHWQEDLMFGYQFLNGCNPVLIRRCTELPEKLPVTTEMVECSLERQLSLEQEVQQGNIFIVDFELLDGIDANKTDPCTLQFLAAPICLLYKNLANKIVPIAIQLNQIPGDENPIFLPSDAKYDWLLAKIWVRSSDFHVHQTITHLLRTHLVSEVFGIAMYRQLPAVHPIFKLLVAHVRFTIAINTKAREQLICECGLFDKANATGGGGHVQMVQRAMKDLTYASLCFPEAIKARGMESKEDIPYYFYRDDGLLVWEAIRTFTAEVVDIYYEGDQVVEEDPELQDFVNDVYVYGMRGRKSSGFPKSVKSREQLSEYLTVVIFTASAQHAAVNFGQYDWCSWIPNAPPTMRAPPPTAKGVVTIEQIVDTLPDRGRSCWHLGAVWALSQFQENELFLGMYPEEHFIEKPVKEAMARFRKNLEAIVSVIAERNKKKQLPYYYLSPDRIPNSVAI
Procedure: (§1) Human leukocyte 5-lipoxygenase was expressed as a non-tagged protein and used as a crude ammonium sulfate protein fraction, as published previously.
(§2) Inhibitor potencies were evaluated through use of the standard UV-based inhibitor assay. The initial rates were determined by following the formation of the conjugated diene product at 234 nm (ε = 25,000 M^−1 cm^−1) with a Perkin-Elmer Lambda 40 UV/Vis spectrophotometer at one substrate concentration and varying inhibitor concentrations. All reactions were 2 mL in volume and constantly stirred using a magnetic stir bar at room temperature (23°C), with the enzyme specific buffer conditions outlined in Table 1. The substrate used for the various isozymes was arachidonic acid (AA) for 5-LOX, 12-LOX, and 15-LOX-2 and linoleic acid (LA) for 15-LOX-1, where concentrations were quantitatively determined by allowing the enzymatic reaction to go to completion. IC50 values were obtained by determining the initial rate at various inhibitor concentrations and plotting them against inhibitor concentration, followed by a hyperbolic saturation curve fit. The data used for the saturation curves were performed in duplicate or triplicate, depending on the quality of the data. […] Inhibitors were stored at −20°C in DMSO. […] The solvent isotope effect of the inhibitor IC50 was investigated utilizing the same conditions and methods as stated above. The pH of the buffered D2O was determined as reported previously.

[2] = target: T2, 5-LOX (Homo sapiens, UniProt P09917); experiment: Pseudoperoxidase activity assay; assay type: biochemical; settings: 10 µM inhibitor, 10 µM 13-HPODE, positive = loss of greater than 40% of product absorption at 234 nm
T2 construct: made in house
T2 sequence (P09917 1-674): T1 sequence (P09917 1-674)
Procedure: The reductive properties of the inhibitors were determined by monitoring the pseudoperoxidase activity of lipoxygenase in the presence of the inhibitor and 13-(S)-hydroperoxyoctadecadienoic acid (13-HPODE). Activity is monitored by direct measurement of the product degradation following the decrease of absorbance at 234 nm using a Perkin-Elmer Lambda 40 UV/Vis spectrometer (50 mM Sodium Phosphate (pH 7.4), 0.3 mM CaCl2, 0.1 mM EDTA, 0.01% Triton X100, 10 µM 13-HPODE). All reactions were performed in 2 mL of buffer and constantly stirred with a rotating stir bar (23°C). Reaction was initiated by addition of 10 µM inhibitor (a 1 to 1 ratio to 13-HPODE), and a positive result for activity reflected a loss of greater than 40% of product absorption at 234 nm.

[3] = target: T3, Human reticulocyte 15-lipoxygenase-1 (15-LOX-1) (Homo sapiens, UniProt P16050); experiment: Lipoxygenase UV-based inhibitor assay, 15-LOX-1; assay type: biochemical; settings: 10 µM LA, pH 7.5
T3 construct: His6 (N); made in house
T3 sequence (P16050 1-662): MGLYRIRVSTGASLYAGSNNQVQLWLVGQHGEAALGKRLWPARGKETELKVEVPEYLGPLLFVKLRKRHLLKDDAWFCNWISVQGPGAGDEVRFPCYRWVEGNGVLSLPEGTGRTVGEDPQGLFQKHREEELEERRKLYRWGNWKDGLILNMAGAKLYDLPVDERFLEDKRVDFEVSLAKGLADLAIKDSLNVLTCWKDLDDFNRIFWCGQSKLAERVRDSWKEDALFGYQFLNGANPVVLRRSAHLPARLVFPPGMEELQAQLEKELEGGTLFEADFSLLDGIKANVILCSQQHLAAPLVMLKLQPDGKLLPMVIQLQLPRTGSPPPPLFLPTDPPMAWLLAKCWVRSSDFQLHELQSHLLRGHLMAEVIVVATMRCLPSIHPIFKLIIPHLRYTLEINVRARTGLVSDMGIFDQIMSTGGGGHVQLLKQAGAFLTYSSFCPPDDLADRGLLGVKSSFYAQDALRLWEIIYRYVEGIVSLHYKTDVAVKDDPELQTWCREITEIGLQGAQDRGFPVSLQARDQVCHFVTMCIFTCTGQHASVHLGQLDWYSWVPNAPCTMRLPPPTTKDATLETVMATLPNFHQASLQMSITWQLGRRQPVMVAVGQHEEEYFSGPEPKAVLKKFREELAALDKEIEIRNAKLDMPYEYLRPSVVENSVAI
Procedure: as §1, §2

[4] = target: T4, human platelet 12-lipoxygenase (12-LOX) (Homo sapiens, UniProt P18054); experiment: Lipoxygenase UV-based inhibitor assay, 12-LOX; assay type: biochemical; settings: 10 µM AA, pH 8.0
T4 construct: His6 (N); made in house
T4 sequence (P18054 1-663): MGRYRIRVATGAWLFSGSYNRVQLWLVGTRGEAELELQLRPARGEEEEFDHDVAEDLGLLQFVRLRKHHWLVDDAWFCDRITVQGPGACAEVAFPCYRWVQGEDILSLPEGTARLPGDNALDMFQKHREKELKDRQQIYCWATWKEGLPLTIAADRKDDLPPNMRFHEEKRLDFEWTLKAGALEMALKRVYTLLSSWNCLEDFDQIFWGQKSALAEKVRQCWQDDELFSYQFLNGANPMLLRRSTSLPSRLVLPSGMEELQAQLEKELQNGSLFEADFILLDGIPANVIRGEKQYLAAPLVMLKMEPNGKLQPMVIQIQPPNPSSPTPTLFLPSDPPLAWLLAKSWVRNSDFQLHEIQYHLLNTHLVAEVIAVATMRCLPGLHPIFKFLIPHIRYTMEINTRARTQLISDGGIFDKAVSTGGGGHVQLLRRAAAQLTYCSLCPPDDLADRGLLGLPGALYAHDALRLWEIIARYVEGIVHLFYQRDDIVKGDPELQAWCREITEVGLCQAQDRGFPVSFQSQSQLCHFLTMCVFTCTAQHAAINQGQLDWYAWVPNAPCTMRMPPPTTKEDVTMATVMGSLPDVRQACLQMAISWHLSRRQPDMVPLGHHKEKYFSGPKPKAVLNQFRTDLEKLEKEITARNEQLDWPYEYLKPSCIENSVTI
Procedure: as §1, §2

[5] = test system: LTB4 synthesis in whole human blood; experiment: Human blood LTB4 inhibition assay; assay type: cell-based; settings: Homo sapiens, compounds at 10 µM, calcium ionophore stimulated, ELISA; error in parentheses
Procedure: Whole human blood was obtained from healthy volunteers from within the Student Health Center. These studies were approved by the UCSC Institutional Review Board (IRB) and informed consent was obtained from all donors before blood draw. The whole blood was dispensed in 150 µL samples followed by addition of inhibitor or control (vehicle, DMSO), and incubated for 15 min at 37°C. The mixture was then stimulated by introduction of the calcium ionophore, […], (freshly diluted from a 50 mM DMSO stock to 1.5 mM in Hanks balanced salt solution), and incubated for 30 min at 37°C. Samples were then centrifuged at 1,500 rpm (300 g) for 10 min at 4°C and the supernatant diluted between 20 and 50-fold (batch dependent) for LTB4 detection, using an ELISA detection kit (Cayman Chemicals Inc.).

[6] = target: T5, human prostate epithelial 15-lipoxygenase-2 (15-LOX-2) (Homo sapiens, UniProt O15296); experiment: Lipoxygenase UV-based inhibitor assay, 15-LOX-2; assay type: biochemical; settings: 30 µM AA, pH 7.5
T5 construct: His6 (N); made in house
T5 sequence (O15296 1-676): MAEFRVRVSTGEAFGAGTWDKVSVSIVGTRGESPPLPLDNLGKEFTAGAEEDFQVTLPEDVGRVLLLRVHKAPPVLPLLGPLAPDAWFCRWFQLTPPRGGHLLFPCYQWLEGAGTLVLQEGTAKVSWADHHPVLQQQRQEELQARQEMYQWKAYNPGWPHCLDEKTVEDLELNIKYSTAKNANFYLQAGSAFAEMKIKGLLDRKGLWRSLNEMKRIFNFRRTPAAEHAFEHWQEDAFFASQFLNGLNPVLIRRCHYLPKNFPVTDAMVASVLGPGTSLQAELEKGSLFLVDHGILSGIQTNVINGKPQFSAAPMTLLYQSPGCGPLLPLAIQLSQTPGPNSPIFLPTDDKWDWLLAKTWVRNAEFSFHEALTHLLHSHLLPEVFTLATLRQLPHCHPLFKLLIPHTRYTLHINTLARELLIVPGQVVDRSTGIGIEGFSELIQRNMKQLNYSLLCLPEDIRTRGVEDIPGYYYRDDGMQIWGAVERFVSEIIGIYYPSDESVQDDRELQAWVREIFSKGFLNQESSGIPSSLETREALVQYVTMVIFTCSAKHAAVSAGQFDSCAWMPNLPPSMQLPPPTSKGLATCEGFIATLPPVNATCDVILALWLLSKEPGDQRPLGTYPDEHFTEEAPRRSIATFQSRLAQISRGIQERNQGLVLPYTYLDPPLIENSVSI
Procedure: as §1, §2

[7] = target: T6, Homo sapiens CYP51 (HsCYP51) (Homo sapiens, UniProt Q16850); design: method as in PMID 20149798; settings: ref [40]; read-out: Kd with HsCYP51, previously reported; cited from earlier work
T6 construct: made in house; host or cells: E. coli
T6 sequence (Q16850 1-509): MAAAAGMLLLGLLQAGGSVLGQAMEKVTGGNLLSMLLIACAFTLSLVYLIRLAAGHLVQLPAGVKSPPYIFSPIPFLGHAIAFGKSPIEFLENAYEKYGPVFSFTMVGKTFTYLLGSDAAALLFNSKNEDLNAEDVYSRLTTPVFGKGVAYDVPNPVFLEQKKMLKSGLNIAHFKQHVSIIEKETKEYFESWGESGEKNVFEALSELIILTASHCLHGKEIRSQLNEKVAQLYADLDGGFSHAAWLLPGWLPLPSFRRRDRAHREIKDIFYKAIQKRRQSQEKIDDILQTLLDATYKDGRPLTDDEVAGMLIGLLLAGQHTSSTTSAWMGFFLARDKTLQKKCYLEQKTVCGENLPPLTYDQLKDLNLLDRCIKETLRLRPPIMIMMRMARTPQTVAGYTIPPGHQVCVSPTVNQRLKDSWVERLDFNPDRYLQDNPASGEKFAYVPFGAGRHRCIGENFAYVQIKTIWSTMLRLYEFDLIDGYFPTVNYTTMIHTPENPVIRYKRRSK

Row | Structure (SMILES) | IC50 [1] [µM] | Reductive activity (pseudoperoxidase activity) [2] | further results
1 | CC(C)(C)OC(=O)N1CCC(c2ccc(NCc3ccc(-c4ccc(C#N)cc4)o3)cc2)CC1 [Compound 2] | > 150 | No | 5-LOX inhibition, in words [1]: complete loss of inhibition
2 | CC(C)(C)OC(=O)N1CCN(c2ccc(OCc3ccc(-c4ccc(C#N)cc4)o3)cc2)CC1 [Compound 3] | > 150 | No | 5-LOX inhibition, in words [1]: complete loss of inhibition
3 | CC(C)(C)OC(=O)N1CCN(c2ncc(NCc3ccc(-c4ccc(C#N)cc4)o3)cn2)CC1 [Compound 4] | > 150 | No | 5-LOX inhibition, in words [1]: complete loss of inhibition
4 | CC(C)(C)OC(=O)N1CCN(c2cnc(NCc3ccc(-c4ccc(C#N)cc4)o3)nc2)CC1 [Compound 5] | > 150 | No | 5-LOX inhibition, in words [1]: complete loss of inhibition
5 | CN(Cc1ccc(-c2ccc(C#N)cc2)o1)c1ccc(N2CCN(C(=O)OC(C)(C)C)CC2)cc1 [Compound 7] | 2.7 | Yes | –
6 | CC(C)(C)OC(=O)N1CCN(c2ccc(NCc3cnc(-c4ccc(C#N)cc4)o3)cc2)CC1 [Compound 8] | 0.1 | – | –
7 | CC(C)(C)OC(=O)N1CCN(c2ccc(NCc3ncc(-c4ccc(C#N)cc4)o3)cc2)CC1 [Compound 9] | 1.5 | – | –
8 | CC(C)(C)OC(=O)N1CCN(c2ccc(NCc3nnc(-c4ccc(C#N)cc4)o3)cc2)CC1 [Compound 10] | > 150 | – | decrease in 5-LOX potency ([1]; relative to the other analogues of Figure 3): greater than 10 fold
9 | CC(=O)N1CCN(c2ccc(NCc3ccc(C)cc3)cc2)CC1 [Compound 11] | 1.1 | – | –
10 | CC(=O)N1CCN(c2ccc(NCc3ccc(-c4ccc(Br)cc4)o3)cc2)CC1 [Compound 12] | 2.6 | – | –
11 | Cc1ccc(CNc2ccc(N3CCCCC3)cc2)cc1 [Compound 15] | 0.6 | – | IC50 [3]: > 150 µM; IC50 [4]: > 50 µM; inhibition at 10 µM [5]: < 10%; IC50 [6]: > 50 µM
12 | Clc1ccccc1C(c1ccccc1)(c1ccccc1)n1ccnc1 [clotrimazole] | – | – | Kd [7]: < 0.1 µM
13 | Clc1ccc(COC(Cn2ccnc2)c2ccc(Cl)cc2Cl)cc1 (stereo not shown) [econazole] | – | – | Kd [7]: < 0.1 µM
14 | CC(c1cc2ccccc2s1)N(O)C(N)=O (stereo not shown) [zileuton, reference compound] | – | reductive | IC50 [3]: > 50 µM; IC50 [4]: > 150 µM; Reductive activity (pseudoperoxidase activity) ([2]; listed as Zilueton): Yes
